The test system of experiment [1] is IL-2/JAK1 & 3/STAT5 (CTLL-2). Briefly: Intracellular activity assay, IL-2 induced STAT5 phosphorylation in CTLL-2. The settings on record: Mus musculus; inhibition of STAT5 phosphorylation, CTLL-2, IL-2 10 ng/mL. Type of experiment: cell-based. The text has this: (§1) In this experiment, western blot (WB) and flow cytometry are used to evaluate the intracellular activities of the test compounds by comparing the relative levels of the signals of phosphorylated and non-phosphorylated STATs in 5 cell models, including U937, THP-1, CTLL-2, UT-7/EPO and activated human periphery blood cell (hPBC). The primary antibody and secondary antibody used in WB hybridization in this experiment are purchased from Cell Signaling Company (http://www.cellsignal.com). The fluorescence-labeled antibodies used in flow cytometry are purchased from eBiosciences Company (http://www.ebioscience.com).
CTLL-2 is a T-cell line, and its proliferation and growth depends on cytokine IL-2. […] The intracellular inhibitory activity of the compounds on JAK1/3 can be evaluated by detecting the change of the phosphorylation level of STAT5. […]
(§2) (2) Cell fixation and fluorescence labeling: the cells are fixed using paraformaldehyde (30 min), and subsequently treated for membrane permeability in chilled methanol (15 min). […]
(3) Detection by flow cytometry: the detection is carried out using Guava® easyCyte flow cytometer according to the instruction. The median fluorescent intensity (MFI) of a sample is detected using an appropriate cell population. […]

In experiment [2] the test system is IL-4/JAK1 & 3/STAT6 (THP-1). Briefly: Intracellular activity assay, IL-4 induced STAT6 phosphorylation in THP-1. The settings on record: Homo sapiens; inhibition of STAT6 phosphorylation, THP-1, IL-4 10 ng/mL. Type of experiment: cell-based.
Source text: as §1
THP-1 is a monocytic cell line. […] The intracellular inhibitory activity of the compounds on JAK1/3 can be evaluated by detecting the change of the phosphorylation level of STAT6. […]
(2) Protein extraction and WB detection: after extraction, the protein content is determined. […]
(3) Signal detection: the hybridization signal is detected by X-ray imaging. The grey scale signal obtained by scanning is converted to digital signal, and the signal intensities for both phosphorylated STATs and STATs are each calculated to evaluate the phosphorylation inhibitory activities of the compounds on STATs. […]
as §2

The target of experiment [3] is TYK2 (Homo sapiens (Human), UniProt P29597). The experiment in a line: Eurofins IC50Profiler radiometric kinase assay, TYK2. Type of experiment: biochemical. The settings on record: 9 semilog concentrations. The text has this:
A proportion of the compounds of the present invention are subjected to kinase profile screening (KinaseProfiler™)) and enzymatic inhibitory activity (IC50Profiler™)) assay by entrusting Eurofins company (http://www.eurofins.com). Besides the kinases in the JAK family, the kinases that have been screened for their activity also include most Group 3F and Group 4 kinases (ITK, BLK, TBK1, VEGFRs, ERBBs, etc.), and blood system related kinases (Zhang J. et al. 2009, Nat. Rev. Cancer., 9: 28-39). The concentration of the test compound for kinase profile screening is 1 μM, and a gradient of 9 semilog concentration gradients are used to determine IC50. Detection is carried out according to standard procedure of Eurofins Company. Briefly, according to the requirements of different kinase reactions, 0.2 μL test compound (50 μM, dissolved in dimethyl sulfoxide (DMSO)) is added to reaction buffer containing specific kinase (the buffer system containing 20 mM MOPS, 1 mM EDTA, 0.01% Brij-35, 5% Glycerol, 0.1% β-mercaptoethanol, 1 mg/mL BSA, or 50 mM TRIS, 0.1 mM EGTA, 0.1 mM Na3VO4, 0.1% β-mercaptoethanol, 1 mg/mL BSA, based on the type of kinase used). […] After drying, radio-activity is detected. […]

Each structure is given as a SMILES string.

Sequence of TYK2 (P29597 whole entry, species assumed): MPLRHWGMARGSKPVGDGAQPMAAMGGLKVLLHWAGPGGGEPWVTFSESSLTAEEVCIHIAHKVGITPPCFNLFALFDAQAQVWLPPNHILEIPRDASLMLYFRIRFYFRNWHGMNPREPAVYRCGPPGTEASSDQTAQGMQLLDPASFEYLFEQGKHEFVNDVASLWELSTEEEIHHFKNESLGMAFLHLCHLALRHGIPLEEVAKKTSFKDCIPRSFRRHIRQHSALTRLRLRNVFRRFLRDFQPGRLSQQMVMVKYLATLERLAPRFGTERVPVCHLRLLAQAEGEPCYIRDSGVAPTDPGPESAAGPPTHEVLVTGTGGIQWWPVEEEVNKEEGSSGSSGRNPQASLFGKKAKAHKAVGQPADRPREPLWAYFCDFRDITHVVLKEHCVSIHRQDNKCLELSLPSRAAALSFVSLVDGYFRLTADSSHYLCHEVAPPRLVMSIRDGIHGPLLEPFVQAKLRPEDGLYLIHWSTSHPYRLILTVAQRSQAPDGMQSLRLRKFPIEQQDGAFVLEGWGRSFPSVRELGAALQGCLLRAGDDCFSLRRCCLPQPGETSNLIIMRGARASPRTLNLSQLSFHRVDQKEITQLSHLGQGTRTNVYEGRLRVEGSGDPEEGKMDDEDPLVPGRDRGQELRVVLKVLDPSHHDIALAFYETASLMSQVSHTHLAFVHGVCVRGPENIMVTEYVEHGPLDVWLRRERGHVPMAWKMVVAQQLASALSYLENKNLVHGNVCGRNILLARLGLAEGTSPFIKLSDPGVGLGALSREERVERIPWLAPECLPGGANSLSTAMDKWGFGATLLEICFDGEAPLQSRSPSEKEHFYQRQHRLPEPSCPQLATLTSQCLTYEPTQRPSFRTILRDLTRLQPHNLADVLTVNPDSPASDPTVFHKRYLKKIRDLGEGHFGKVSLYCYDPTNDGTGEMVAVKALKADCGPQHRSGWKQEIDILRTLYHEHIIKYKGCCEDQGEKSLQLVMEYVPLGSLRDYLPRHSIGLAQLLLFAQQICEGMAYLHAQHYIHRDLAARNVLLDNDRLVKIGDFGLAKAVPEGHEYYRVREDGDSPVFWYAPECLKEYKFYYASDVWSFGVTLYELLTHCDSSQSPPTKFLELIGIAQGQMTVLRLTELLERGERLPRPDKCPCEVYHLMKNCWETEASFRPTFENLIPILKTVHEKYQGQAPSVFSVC

For the compound `C=CC(=O)N(C)c1cc(Nc2ncc(Cl)c(NCCCNC(=O)c3ccc(C#N)cc3)n2)ccc1F` [Example 7, N-(3-(5-chloro-2-(4-fluoro-3-(N-methylacrylamido)phenylamino)pyrimidinyl-4-amino)propyl)-4-cyano-benzamide], the IC50 (in general, the midpoint of a concentration-inhibition curve) in experiment [1] is 0.08 µM; in experiment [2], 1.69 µM; in experiment [3], above 10 µM.
In turn, `C=CC(=O)N(C)c1cc(Nc2ncc(Cl)c(NCCCNC(=O)c3ccc(C(F)(F)F)cc3)n2)ccc1F` [Example 22, N-(3-(5-chloro-2-(4-fluoro-3-(N-methylacrylamido)phenylamino)pyrimidinyl-4-amino)propyl)-4-trifluoromethylbenzamide] showed an IC50 in experiment [3] above 10 µM.
Regarding `C=CC(=O)N(C)c1cc(Nc2ncc(Cl)c(NCCCNC(=O)c3ccc(F)cc3)n2)ccc1F` [Example 23, N-(3-(5-chloro-2-(4-fluoro-3-(N-methylacrylamido)phenylamino)pyrimidinyl-4-amino)propyl)-4-fluorobenzamide], the values for the IC50 in experiment [1] and in experiment [2] were 0.13 µM and 1.73 µM, respectively.

The record behind these values is patent publication US10011571B2, “Preparation method for aromatic heterocyclic compound used as selective JAK3 and/or JAK1 kinase inhibitor and application of aromatic heterocyclic compound” (SHENZHEN CHIPSCREEN BIOSCIENCES, LTD., priority 2014, dated 2018).
